The term inhibition denotes the drop in the measured response relative to a control, in per cent. For orientation: IC50 means the concentration needed to halve the response being measured.

This note sets out measurements from patent US10494384B2, “Urea peptoid boric acid compound, pharmaceutical composition thereof, preparation method therefor, and uses thereof” (Peking University, priority 2015, dated 2019).

The target of test [1] is T1, 20S proteasome extracted from rat liver (PGPH) (Rattus norvegicus, UniProt P28073+Q9JHW0).
T1 construct: 20S proteasome extracted from rat liver; from tissue; host or cells: rat liver
Nature of the test: inhibition of 20S proteasome, PGPH activity (fluorescent peptide). The format is biochemical. To be noted: for inhibition at 0.2 µM / inhibition at 2 µM / inhibition at 20 µM: rat liver 20S proteasome, 37° C., 1 h, read-out: inhibition rates (%) PGPH. As for the experimental part:
(§1) 1 μg of 20S proteasome extracted from rat liver was incubated with a 100 μL solution containing various concentrations of the present compounds, 50 μM fluorescent peptides and 20 mM Tris-HCl at 37° C. for 1 h, respectively. […] 0.1% DMSO was used as a solvent control. Compared with the fluorescence of solvent control, an inhibition rate or IC50 value was calculated.

The next test concerns A549, human lung cancer. The test is described as follows: preliminary anti-tumor screening in vitro, SRB method. To be noted: read-out: inhibition rates (%) A549. It is filed as cell-based. How it is done: (§2) The test methods used in this test example are routine methods for anti-tumor activities test in pharmaceutical area, for example, referring to the following reference: (J. Immunol Method, 1983, 65, 55).
(§3) Test models: A: MTT method (Hela, human cervical carcinoma); B: SRB method (BGC-823, […]); C: SRB method (MCF-7, breast cancer); D: SRB method (A549, human lung cancer); E: SRB method (PC3M1E8, prostate cancer).
(§4) Inhibition rates of the compounds were measured under concentrations of 0.1 μM, 1 μM or 10 μM.
On the technique in general: The SRB assay estimates cell density from bound dye.

Another test concerns BGC-823, liver cancer. The test is described as above. It is filed as cell-based. The settings on record: Homo sapiens, read-out: inhibition rates (%) BGC-823. How it is done: as §2, §3, §4
The subject of a further test is MCF-7, breast cancer. The test is described as above. It is filed as cell-based. The settings on record: Homo sapiens, read-out: inhibition rates (%) MCF-7; for inhibition at 0.1 µM: MCF7, 0.1 μM; for inhibition at 1 µM: MCF7, 1 μM; for inhibition at 10 µM: MCF7, 10 μM. As for the experimental part:
as §2, §3, §4

For test [2], the system named is Hela, human cervical carcinoma. Nature of the test: preliminary anti-tumor screening in vitro, MTT method. It is filed as cell-based. To be noted: read-out: inhibition rates (%) Hela. How it is done:
as §2, §3, §4
A general note: Tetrazolium dyes change colour on reduction, which living cells bring about.

For test [3], the target named is T2, 20S proteasome extracted from rat liver (T-L) (Rattus norvegicus, UniProt P40112+Q9JHW0).
T2 construct: 20S proteasome extracted from rat liver; from tissue; host or cells: rat liver
Nature of the test: inhibition of 20S proteasome, T-L activity (fluorescent peptide). The format is biochemical. The settings on record: for inhibition at 0.2 µM / inhibition at 2 µM / inhibition at 20 µM: 37° C., 1 h, read-out: inhibition rates (%) T-L. As for the experimental part: as §1

The target in test [4] is T3, 20S proteasome extracted from rat liver (CT-L) (Rattus norvegicus, UniProt P18421+P28075).
T3 construct: 20S proteasome extracted from rat liver; from tissue; host or cells: rat liver
The test is described as follows: inhibition of 20S proteasome, CT-L activity (fluorescent peptide). The format is biochemical. To be noted: for inhibition at 0.2 µM / inhibition at 2 µM / inhibition at 20 µM: rat liver 20S proteasome, 37° C., 1 h, read-out: inhibition rates (%) CT-L. As for the experimental part:
as §1

SMILES strings stand for the structures. Like-named read-outs stand apart in the source and are kept apart here.

For the compound `COc1ccc(CNC(=O)[C@H](Cc2ccccc2)NC(=O)N[C@@H](CC(C)C)B(O)O)cc1` [Example 1, N-L-leucine borate-N′-(p-methoxy-benzylcarbamoyl)-L-phenylalanine-urea], the inhibition at 0.2 µM in test [1] was 40.9%; in test [3] (rat liver 20S proteasome) it was -6.55%; in test [4] it was 33.8%. Further, the inhibition at 2 µM in test [1] came to 87.9%; in test [3] (rat liver 20S proteasome), 22.8%; in test [4], 86.8%. The inhibition at 20 µM in test [1] worked out at 96.6%; in test [3] (rat liver 20S proteasome), 35.5%; in test [4], 93.6%. Also, the inhibition at 0.1 µM in the test with A549, human lung cancer amounted to 1.44%; with BGC-823, liver cancer, 7.79%; in the test on MCF-7, breast cancer, 1%; in test [2], 8.67%. In addition, the inhibition at 1 µM in the test with A549, human lung cancer stood at 35.3%; in the test with BGC-823, liver cancer it was 14.9%; with MCF-7, breast cancer, 7.46%; in test [2], 28%. The inhibition at 10 µM in the test with A549, human lung cancer came to 50.2%; with BGC-823, liver cancer it was 32%; with MCF-7, breast cancer, 22.9%; in test [2], 38.5%.

Turning to `CC(C)C[C@H](NC(=O)[C@H](Cc1ccccc1)NC(=O)NCc1cnccn1)B(O)O` [Example 2, N-L-phenylalanyl-L-leucine borate-N′-pyrazin-2-ylmethylamine-urea], the figures for the IC50 in test [1], in test [3] and in test [4] were 0.79 µM, 11.4 µM and 0.05 µM, respectively.

For `CC(C)C[C@H](NC(=O)N[C@@H](Cc1ccccc1)C(=O)NCC1CCCO1)B(O)O` (stereo partly drawn) [Example 3, N-L-leucine borate-N′-(tetrahydrofuran-2-ylmethylcarbamoyl)-L-phenylalanine-urea], the inhibition at 0.2 µM was 7.38% in test [1], 16.9% in test [3] (rat liver 20S proteasome) and -20.8% in test [4]. Besides, the results for the inhibition at 2 µM in test [1], in test [3] (rat liver 20S proteasome) and in test [4] were 40.8%, 18.5% and 1.91%, respectively. The values for the inhibition at 20 µM in test [1], in test [3] (rat liver 20S proteasome) and in test [4] were 88.4%, 35.9% and 68.6%, respectively. Also, the inhibition at 0.1 µM came out at 5.55% in the test on A549, human lung cancer; 4.73% in the test with BGC-823, liver cancer; 3.24% with MCF-7, breast cancer; 10.2% in test [2]. Also, the inhibition at 1 µM was 16.6% in the test on A549, human lung cancer; -4.01% in the test with BGC-823, liver cancer; 9.52% in the test with MCF-7, breast cancer; 14.2% in test [2]. For the same compound, the inhibition at 10 µM in the test on A549, human lung cancer is 14.9%; in the test with BGC-823, liver cancer it was 0.96%; in the test with MCF-7, breast cancer, 9.37%; in test [2], 19.2%.

As to `CC(C)C[C@H](NC(=O)N[C@@H](Cc1ccccc1)C(=O)Nc1cccc(OCc2ccccc2)c1)B(O)O` [Example 4, N-L-leucine borate-N′-(3-benzyloxy-phenylcarbamoyl)-L-phenylalanine-urea], the inhibition at 0.2 µM in test [1] is 2.03%; in test [3] (rat liver 20S proteasome) it was 6.92%; in test [4], -14.2%. Also, the inhibition at 2 µM was determined as 2.19% in test [1], 4.38% in test [3] (rat liver 20S proteasome) and 10.4% in test [4]. Besides, the inhibition at 20 µM in test [1] was 62.7%; in test [3] (rat liver 20S proteasome), 36.2%; in test [4], 77.7%. Besides, the inhibition at 0.1 µM came out at 6.4% with A549, human lung cancer; 6.67% in the test on BGC-823, liver cancer; 6.46% with MCF-7, breast cancer; 9.59% in test [2]. Also, the inhibition at 1 µM in the test with A549, human lung cancer came out at 16.2%; in the test with BGC-823, liver cancer, 4.64%; in the test with MCF-7, breast cancer, 9.07%; in test [2], 11.3%. Besides, the inhibition at 10 µM in the test on A549, human lung cancer came out at 31.1%; with BGC-823, liver cancer, 13.1%; in the test with MCF-7, breast cancer, 9.93%; in test [2], 25.4%.

For the compound `CC(C)C[C@H](NC(=O)N[C@@H](Cc1ccccc1)C(=O)Nc1cnccn1)B(O)O` [Example 6, N-L-leucine borate-N′-(pyrazin-2-ylcarbamoyl)-L-phenylalanine-urea], the inhibition at 0.2 µM in test [1] was 17.4%; in test [3] (rat liver 20S proteasome), -3.92%; in test [4] it was -0.67%. Besides, the results for the inhibition at 2 µM in test [1], in test [3] (rat liver 20S proteasome) and in test [4] were 66.3%, 2.41% and 44.7%, respectively. Also, the inhibition at 20 µM was 93.8% in test [1], 27.2% in test [3] (rat liver 20S proteasome) and 86.8% in test [4]. The inhibition at 0.1 µM is -6.94% in the test with A549, human lung cancer; 4.88% in the test on BGC-823, liver cancer; 0.8% with MCF-7, breast cancer; 1.74% in test [2]. Moreover, the inhibition at 1 µM was -3.91% in the test on A549, human lung cancer; 4.4% in the test with BGC-823, liver cancer; 1.9% in the test on MCF-7, breast cancer; 4.43% in test [2]. The inhibition at 10 µM was 7.01% with A549, human lung cancer; 8.98% with BGC-823, liver cancer; 6.05% in the test with MCF-7, breast cancer; 16.9% in test [2].

`CC(C)C[C@H](NC(=O)[C@H](Cc1ccccc1)NC(=O)NCCc1ccccc1)B(O)O` [Example 25, N-L-phenylalanyl-L-leucine borate-N′-phenylethylamine-urea]: the IC50 amounted to 0.24 µM in test [1], 1.05 µM in test [3] and 0.02 µM in test [4].

`CC(C)C[C@H](NC(=O)[C@H](Cc1ccccc1)NC(=O)N(C)Cc1ccccc1)B(O)O` [Example 29, N-L-phenylalanyl-L-leucine borate-N′—(N-methyl-benzylamine)-urea]: the IC50 in test [3] is 0.19 µM; in test [4] it was 0.002 µM.

For the compound `Cc1cccc(CNC(=O)N[C@@H](Cc2ccccc2)C(=O)N[C@@H](CC(C)C)B(O)O)c1C` [Example 30, N-L-phenylalanyl-L-leucine borate-N′-2,3-dimethyl-benzylamine-urea], the IC50 stood at 0.13 µM in test [1], 0.34 µM in test [3] and 0.004 µM in test [4].

For `CC(C)C[C@H](NC(=O)[C@H](Cc1ccccc1)NC(=O)NCc1cc(Cl)ccc1Cl)B(O)O` [Example 31, N-L-phenylalanyl-L-leucine borate-N′-2,5-dichloro-benzylamine-urea], the IC50 was 0.48 µM in test [1], 0.53 µM in test [3] and 0.04 µM in test [4].

On to `CC(C)C[C@H](NC(=O)[C@H](Cc1ccccc1)NC(=O)NCc1ccco1)B(O)O` [Example 33, N-L-phenylalanyl-L-leucine borate-N′-furan-2-ylmethylamine-urea], for which the IC50 in test [1] was determined as 0.08 µM; in test [3], 5.32 µM; in test [4], 0.02 µM.

In the case of `CC(C)C[C@H](NC(=O)[C@H](Cc1ccccc1)NC(=O)NCc1cccc([N+](=O)[O-])c1)B(O)O` [Example 36, N-L-phenylalanyl-L-leucine borate-N′-3-nitro-benzylamine-urea], the results for the IC50 in test [1], in test [3] and in test [4] were 0.14 µM, 0.19 µM and 0.003 µM, respectively.

Take `CC(C)C[C@H](NC(=O)[C@H](Cc1ccccc1)NC(=O)N1CCc2ccccc2C1=O)B(O)O` [Example 37, N-(1-oxo-1,2,3,4-dihydroisoquinolin-2-ylformyl)-L-phenylalanyl-L-leucine borate]: the IC50 in test [1] is 1.24 µM; in test [3] (rat liver 20S proteasome, read-out: IC50 (μM) T-L) it was over 20 µM; in test [4], 0.66 µM.
